Converted amounts (≈) assume the structure as drawn.
Legend:
[1] = Determination of the thermal stability (50°, HPLC penem content); assay type: physicochemical
Experimental: In order to determine the thermal stability, samples of crystalline (5R,6S)-2-aminomethyl-6-[(1R)-1-hydroxyethyl)-2-penem-3-carboxylic acid and amorphous racemic (5R,6S,1'R and 5S,6R,1'S)-2-aminomethyl-6-(1'-hydroxyethyl)-2-penem-3-carboxylic acid previously known from German Offenlegungsschrift No. 2 950 898 are used.
20 mg samples are weighed in glass tubes. The glass tubes are sealed firmly with PVC stoppers and heated in a thermostatted oil bath at 50°. At regular intervals individual glass tubes are removed from the oil bath, the samples are dissolved in 100 ml of doubly distilled water and the penem content is determined by means of HPLC analysis [UV detector: Kratos, 305 nm; injection machine: Wisp; 20 μl charge; integrator: Shimazu, C-R3A; pump: Altex, 2.0 ml/minute; column: Knauer, 25 cm×4 mm, C18 /10 um; eluant: acetonitrile/water 2:98, pH5].

[2] = system: Escheichia coli 205 R + TEM; assay: in vitro MIC; assay type: cell-based; settings: read-out: in vitro MIC
[3] = system: Streptococcus pyrogenes Aronson 1129; assay: in vitro MIC; assay type: cell-based; settings: ARONSON1129
[4] = stability to the enzyme dehydropeptidase from human kidneys; assay type: in vitro ADME; settings: kidney dehydropeptidase, read-out: t1/2 (stability to dehydropeptidase) (converted)
Text: Compounds A and B have the following stability (expressed in half-life periods t1/2) to the enzyme dehydropeptidase from human kidneys: […]

[5] = system: Staphylococcus aureus, Escherichia coli or Streptococcus pyogenes; assay: systemic infection of mice; assay type: in vivo; settings: sc, parenteral, such as subcutaneous, administration
[6] = stability to storage of the solid product; assay type: physicochemical
[7] = Day 0, 50°, solid in sealed glass tube

| SMILES | Penem content [1, 7] | Penem content ([1]; Day 1.8, 50°, 2592 min) [%] | Penem content ([1]; Day 3, 50°, 4320 min) [%] | Penem content ([1]; Day 4.5, 50°, 6480 min) [%] | Penem content ([1]; Day 7, 50°, 10080 min) [%] | Penem content ([1]; Day 9, 50°, 12960 min) [%] | Penem content ([1]; Day 12, 50°, 17280 min) [%] | Penem content ([1]; Day 14, 50°, 20160 min) [%] | MIC [2] [µg/mL] | MIC [3] [µg/mL] | half-life [4] [h] | ED50 [5] [mg/kg] | absorption of water from the air ([6]; approximately normal ambient conditions) | stability under light, heat and air ([6]; relatively long-term action of light, heat (50° C.) and air) |
| --- | --- | --- | --- | --- | --- | --- | --- | --- | --- | --- | --- | --- | --- | --- |
| C[C@@H](O)[C@H]1C(=O)N2C(C(=O)O)=C(CN)S[C@H]12 (relative stereo) [Compound B, (1'R,5R,6S+1'S,5S,6R)-2-aminomethyl-6-(1'-hydroxyethyl)-2-penem-3-carboxylic acid, reference compound] | approx. 100% | 84 | 78 | 73 | 67 | 64 | 63 | 62 | 8 (≈ 32.8 µM) | 0.5 (≈ 2.05 µM) |  |  |  |  |
| C[C@@H](O)[C@H]1C(=O)N2C(C(=O)O)=C(CN)S[C@H]12 [Compound A, (5R,6S)-2-aminomethyl-6-[(1R)-1-hydroxyethyl]-2-penem-3-carboxylic acid] | approx. 100% | 99 | 98 | 97 | 95 | 94 | 92 | 91 | 4 (≈ 16.4 µM) | 0.2 (≈ 0.819 µM) | 6.75 | 0.3 to 30 | no tendency to absorb relatively large quantities of water from the air | very stable |
